Source: patent publication US9388126B2, “Sigma receptor ligands and methods of modulating cellular protein homeostasis using same” (Drexel University, priority 2012, dated 2016)
Values joined by “and” are separate entries in the source; they are usually repeats but may differ in a detail not shown here. Equal values may be shown once.

Legend:
Sigma1 in SKBR3 cells = molecular target: T1, Sigma1 in SKBR3 cells (Homo sapiens, UniProt Q99720); assay: Sigma1 protein level and sub-cellular fractionation; format: cell-based; details: 12-16 hours
T1 construct: endogenous in cells; host or cells: SKBR3
Method: FIG. 66, comprising FIGS. 66A-66H, illustrates the non-limiting mechanism(s) of Sigma1 ligand actions, wherein Sigma ligand treatment induces differential localization of Sigma1. […] FIG. 66B is an immunoblot of the fractions collected from biochemical sub-cellular fractionation assay. […] FIG. 66C is a graph illustrating quantification of bands in FIG. 66B. FIG. 66D is a set of images of confocal immunofluorescence microscopy of Sigma1 in SKBR3 cells treated for 12-16 hours with IPAG. Green signal indicated Sigma1, blue signal (DAPI) indicated nucleus. FIG. 66E is a set of graphs illustrating quantification of fractions collected from biochemical sub-cellular fractionation assay performed using SKBR3 cells. […] Functional and physical association with LC3II and functional interaction with VCP are reported in the literature. FIG. 66H is a set of confocal microscopy images, with evidence of co-localization of poly-ubiquitylated proteins and p62SQSTM. […] The ubiquitin-p62SQSTM co-localization and distribution pattern changed subsequent to IPAG treatment. […] Sigma1 functional related and physical associated proteins were redistributed to the other parts of the cell, especially into autophagosome.

[1] = test system: T-47D breast adenocarcinoma cells; assay: Cell size by flow cytometry (mean FSC-H, G1 phase); format: cell-based, human; details: 10 μM
Method: FIG. 31A is a differential interference contrast (DIC) image of MDA-MB-468 breast adenocarcinoma cells treated for ˜20 hours with DMSO (drug vehicle control), 10 μM IPAG (antagonist) or 10 μM PRE084 (agonist). A twenty-micron bar is shown in each image. Data are presented as mean±SEM. FIG. 31B is a graph illustrating the finding that IPAG diminished the mean cell size (FSC-H) of MDA-MB-468 breast tumor cells in a time-responsive manner. The mean FSC-H of 370±5 at to decreased to 323±4 after 24 hours of IPAG treatment and to 267±2 after 48 hours of treatment. Two-tailed t-tests were performed to determine statistical significance. For IPAG treatment compared to control (DMSO) and Sigma agonists (SKF and PRE084), P=0.0002 at d1 and P=0.00013 at d2. Data were generated from three to five independent determinations for each time-point. Flow cytometry was used to measure mean cell size (mean FSC-H) of T-47D breast adenocarcinoma cells. FIG. 31C is a bar graph illustrating T-47D cells treated for 24 hours with 10 μM indicated Sigma ligand. IPAG and BD 1047 (Sigma1 antagonists) diminished cell size from a mean FSC-H of 412±5 for control (DMSO) cells versus 341±7 and 381±8 for IPAG and BD1047 treated cells, respectively. […] Data represent 5 independent determinations (*P<0.05, ***P<0.001). FIG. 31D is a bar graph illustrating how IPAG (antagonist) decreases cell size in a dose responsive manner. T-47D were treated for 24 h with 1 and 10 μM IPAG, and mean FSC-H was measured. FIG. 31E is a graph illustrating that T47D cell size decreases over time. T-47D cells were treated for a total of 48 hours with 10 μM of the indicated Sigma ligands. […] Neither Sigma1 agonist, (+)-SKF10047 and PRE084, altered cell size. […] Two-tailed t-tests were performed to determine statistical significance. For IPAG treatment compared to control (DMSO) and Sigma1 agonists (SKF and PRE084), P=0.0002 at d1 and P<0.0001 at d2. For FIGS. 31B-31E, the mean FSC-H was determined for each cell cycle population (i.e., G1, S, G2/M), and data is shown for G1 phase cells. S and G2/M phase cells responded similarly (data not shown).

T1 sequence (Q99720 whole entry): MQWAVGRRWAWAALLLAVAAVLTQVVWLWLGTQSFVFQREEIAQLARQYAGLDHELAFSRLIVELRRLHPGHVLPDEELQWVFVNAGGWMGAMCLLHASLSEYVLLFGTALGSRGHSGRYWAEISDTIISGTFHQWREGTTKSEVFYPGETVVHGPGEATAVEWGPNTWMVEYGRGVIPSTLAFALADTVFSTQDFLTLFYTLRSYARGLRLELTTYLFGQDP

N=C(Nc1ccc(I)cc1)NC1C2CC3CC(C2)CC1C3 (stereo not shown) [IPAG, 1-(4-iodophenyl)-3-(2-adamantyl)guanidine]
Sigma1 steady-state protein levels (Sigma1 in SKBR3 cells): Sigma1 steady-state protein levels do not change | Sigma1 sub-cellular distribution (Sigma1 in SKBR3 cells): Sigma1 distribution is altered | mean FSC-H (relative cell size) ([1]; 24 hours, control 412±5): 341±7 and 331±3 | mean FSC-H (relative cell size) ([1]; 48 hours (d2)): 300±2
